# Experimental data reported in patent US7667036B2, “Pyrazolo[1,5-a]pyrimidine derivatives” (Teijin Pharma Limited, priority 2004, dated 2010).
# pIC50: −log10 of the molar value.
# Molecular target: T1, MAPKAP-K2 (Homo sapiens, UniProt P49137)
# Test: MAPKAP-K2 enzyme activity inhibition assay, Method A (33P-ATP, P81 filter plate)
# Assay type: biochemical
# Conditions: 10 μmol/L ATP, 30 μmol/L peptide KKLNRTLSVA, 3% DMSO, 30 min room temperature, read-out: Inhibitory activity (MAPKAP-K2 IC50 class)
# Method: (§1) The assay of inhibitory activity was performed according to Method A described below for Compound No. 1, 2, 3, 4, 20, 21, 22, 23, 24, 25, 26, 79, 80 and 81, and Method B described below for the other compounds.
# A compound was dissolved in DMSO to make its concentration to 10 mmol/L, and further a part of the resulting solution was taken out and stored at −20° C. The stock solution was diluted with DMSO to prepare a stock solution having a 30-fold concentration of the required range. Subsequently the resultant stock solution was diluted to 1:3 to prepare a stock solution having a 10-fold concentration of the required range, and an aliquot of 5 μL of each solution was used for every reaction with 50 μL. During the continuous dilution of all compounds, the final DMSO concentration was maintained at 3% and the solubility of compounds was maximized. Compounds were routinely tested at a final concentration ranging from 300 μmol/L to 0.001 μmol/L, but were sometimes tested at a lower concentration depending upon their activity. (MAPKAP-K2 Enzyme Activity Assay)
# The kinase reaction was carried out using a 96-well round-bottomed polypropylene microplate. MAPKAP-Kinase 2 was diluted to 0.5 mU/μL with diluent buffer (50 mmol/L Tris/HCl (pH7.5), 0.1 mmol/L EGTA, 0.1% (v/v) β-mercaptoethanol, and 1 mg/mL BSA). To each well was added 5 μL of a compound or 30% DMSO and subsequently 25 μL of substrate cocktail (final concentration: 10 μmol/L ATP, 30 μmol/L peptide (KKLNRTLSVA), 50 mmol/L 33P-γ-ATP/Tris solution of (pH 7.5, 0.5 μCi), 0.1 mmol/L EGTA, 10 mmol/L magnesium acetate and 0.1% β-mercaptoethanol). To each well was added 20 μL of an enzyme solution or 20 μL of a diluent buffer without contabing enzyme to initiate the reaction, After shaking the plate for 10 sec, it was fibber allowed to stand at room temperature for 30 min. The reaction was terminated with 50 μL of a 150 mmol/L phosphoric acid solution. Then, 90 μL of a reaction mixture solution was transferred to a 96-well P81 filter plate (Whatmann), and incubation was performed at room temperature for 5 min. Subsequently, the filter plate was washed 4 times with 200 μL of a 75 mmol/L phosphoric acid solution per well through a plate suction manifold (Millipore), followed by further drying in an oven for 2 to 3 hrs. Next, after adding Packard Microscint “0” (30 μL) to each well and shaking the plate for 30 min, scintillation measurement was performed using a Packard TopCount scintillation counter. […]
# T1 sequence (P49137 whole entry): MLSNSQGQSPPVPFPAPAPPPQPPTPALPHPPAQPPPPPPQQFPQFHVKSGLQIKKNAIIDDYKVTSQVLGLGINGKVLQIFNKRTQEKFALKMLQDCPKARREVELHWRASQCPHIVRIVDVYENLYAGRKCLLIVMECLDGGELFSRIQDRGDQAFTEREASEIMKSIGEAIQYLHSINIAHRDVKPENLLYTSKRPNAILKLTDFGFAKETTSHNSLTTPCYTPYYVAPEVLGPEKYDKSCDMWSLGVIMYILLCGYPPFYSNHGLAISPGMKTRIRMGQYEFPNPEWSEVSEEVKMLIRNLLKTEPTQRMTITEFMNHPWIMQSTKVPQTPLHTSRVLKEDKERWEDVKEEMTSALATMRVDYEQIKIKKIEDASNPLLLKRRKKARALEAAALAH
row,pIC50,SMILES
1,4.70 to 5.70,C=CCC1CC(N)CCC1Oc1nc2ccnn2c(Nc2ccc(OCC)cc2)c1C (centres unmarked) [compound 25]
2,4.70 to 5.70,C=CCC1CC(NC)CCC1Oc1nc2ccnn2c(Nc2ccc(OCC)cc2)c1C (centres unmarked) [compound 26]
3,4.70 to 5.70,CCOc1ccc(Nc2c(C)c(SC3CCCNC3)nc3ccnn23)cc1 (centres unmarked) [compound 80]
4,4.70 to 5.70,CCOc1ccc(Nc2c(C)c(SCCN)nc3ccnn23)cc1 [compound 81]

# Molecular target: T1, MAPKAP-K2
# Test: MAPKAP-K2 enzyme activity inhibition assay, Method B (33P-ATP, MultiScreen-PH plate)
# Assay type: biochemical
# Conditions: recombinant human MAPKAP-K2, 0.5% DMSO, 30 min room temperature, read-out: Inhibitory activity (MAPKAP-K2 IC50 class)
# Method: as §1
# A compound was dissolved in […] to make its concentration to 20 mmol/L, and the resultant solution was stored at −20° C. The stock solution was sequentially diluted with DMSO to prepare a solution having a 200-fold concentration of the required range. Further the solution was diluted with water to 1:20 to prepare a solution having a 10-fold concentration of the required range, and an aliquot of 5 μL of each solution was used for every reaction with 50 μL. During the continuous dilution of all compounds, the final DMSO concentration was maintained at 0.5%. Compounds were routinely tested at a final concentration ranging from 100 μmol/L to 0.03 μmol/L, but were sometimes tested at a lower concentration depending upon their activity.
# The reaction was initiated by adding 25 μL of a peptide substrate solution [60 μmol/L substrate peptide, 20 μmol/L ATP, 50 mmol/L Tris buffer (pH 7.5), 0.1 mmol/L EGTA, 0.1% β-mercaptoetanol, 20 mmol/L magnesium acetate, and 0.1 μCi [γ-33P]ATP (specific radio activity: approximately 110 TBq/mmol)] to 5 μL of a 5% DMSO solution of the test compound and subsequently adding 20 μL of a MAPKAP-K2 enzyme solution [10 mU recombinant human MAPKAP-K2, 50 mmol/L Tris buffer (pH 7.5), 0.1 mmol/L EGTA, 0.1% β-mercaptoethanol, 0.1% BSA]. After performing the reaction for 30 min at room temperature, an equivalent volume of 200 mmol/L phosphoric acid solution was added to terminate the reaction. Subsequently, 90 μL of the reaction product was adsorbed on a MultiScreen-PH Plate (Millipore) and then rinsed with 100 mmol/L phosphoric acid solution. After drying the plate, 30 μL of MicroScint-O (Packard BioScience) was added, and further the count per minute was measured by a scintillation counter to determine the inhibitory activity. The substrate peptide was Lys-Lys-Leu-Asn-Arg-Tlr-Leu-Ser-Val-Ala.
# • % Control=(X−B)/(Tot−B)×100 • % Inhibition=100—% Control • X=count per minute of a test compound well • B=count per minute of a well without containing enzyme • Tot=count per minute of a well with DMSO solvent only, without containing the test compound (MAPKAP-K2 inhibitory activity) • IC50 value=the compound concentration at 50% inhibition
row,pIC50,SMILES
1,≥ 5.70,Cc1c(O[C@H]2CC[C@@H](N)CC2)nc2ccnn2c1Nc1ccc(OCCN2CCOCC2)cc1 [compound 90]
2,≥ 5.70,CC(=O)c1ccc(-c2ccc(Nc3c(C)c(O[C@H]4CC[C@@H](N)CC4)nc4ccnn34)cc2)s1 [compound 92]
3,≥ 5.70,CCc1c(O[C@H]2CC[C@@H](N)CC2)nc2ccnn2c1Nc1ccc(I)cc1 [compound 102]
4,≥ 5.70,CCOc1ccc(Nc2c(C)c(OC3CCNCC3)nc3ccnn23)cc1 [compound 239]
5,4.70 to 5.70,Cc1c(OC2CCNCC2)nc2ccnn2c1Nc1ccc(OCc2ccccc2)cc1 [compound 240]
6,4.70 to 5.70,CCOc1ccc(Nc2c(C)c(OCC3CCCNC3)nc3ccnn23)cc1 (centres unmarked) [compound 244]
7,4.00 to 4.70,CCOc1ccc(Nc2c(C)c(OCC3CCCCN3)nc3ccnn23)cc1 (centres unmarked) [compound 245]
8,4.70 to 5.70,CCOc1ccc(Nc2c(C)c(OC3CCN(C)CC3)nc3ccnn23)cc1 [compound 253]
9,4.00 to 4.70,CCOc1ccc(Nc2c(C)c(OC3CCN(C)C3)nc3ccnn23)cc1 (centres unmarked) [compound 256]
10,4.00 to 4.70,CCOc1ccc(Nc2c(C)c(OCC(C)=O)nc3ccnn23)cc1 [compound 259]
11,4.00 to 4.70,CCOc1ccc(Nc2c(C)c(OC[C@H]3CCCN3)nc3ccnn23)cc1 [compound 260]
12,4.00 to 4.70,CCOc1ccc(Nc2c(C)c(OC[C@@H]3CCCN3)nc3ccnn23)cc1 [compound 261]
13,4.00 to 4.70,CCOc1ccc(Nc2c(C)c(OCCNC)nc3ccnn23)cc1 [compound 263]
14,4.00 to 4.70,CCOc1ccc(Nc2c(C)c(O[C@@H]3CCNC3)nc3ccnn23)cc1 [compound 264]
15,4.70 to 5.70,Cc1c(O[C@H]2CC[C@@H](N)CC2)nc2ccnn2c1NCc1ccccc1 [compound 268]
16,4.70 to 5.70,Cc1c(OC2CCCNC2)nc2ccnn2c1NCc1ccccc1 (centres unmarked) [compound 269]
17,4.00 to 4.70,Cc1c(OCCN)nc2ccnn2c1NCc1ccccc1 [compound 270]
18,4.70 to 5.70,Cc1c(O[C@H]2CC[C@@H](N)CC2)nc2ccnn2c1NC1CCCC1 [compound 271]
19,4.70 to 5.70,Cc1c(OC2CCCNC2)nc2ccnn2c1NC1CCCC1 (centres unmarked) [compound 272]
20,4.00 to 4.70,CCOc1ccc(Nc2c(-c3ccccc3)c(OCCN)nc3ccnn23)cc1 [compound 273]
21,4.70 to 5.70,N[C@H]1CC[C@@H](Oc2nc3ccnn3c(Nc3ccc(OCc4ccccc4)cc3)c2-c2ccccc2)CC1 [compound 274]
22,4.70 to 5.70,c1ccc(COc2ccc(Nc3c(-c4ccccc4)c(OC4CCCNC4)nc4ccnn34)cc2)cc1 (centres unmarked) [compound 275]
